{
  "source": "patent US12060588B2",
  "about": "“Methods of editing DNA methylation” (Whitehead Institute for Biomedical Research, priority 2016, dated 2024)",
  "tested_on": "C3H10T1/2 mouse embryonic fibroblast cells",
  "assay": "Fibroblast-to-myoblast conversion assay",
  "type": "cell-based",
  "excerpt": "FIGS. 4A-4H depict targeted demethylation of the MyoD distal enhancer by dCas9-Tet1 to facilitate conversion of fibroblasts to myoblasts. FIG. 4A provides a schematic representation of targeting the MyoD distal enhancer (DE) region in DMR-5 by dCas9-Tet1 (dC-T) with specific gRNAs. […] Cherry positive cells were FACS sorted for RT-qPCR analysis. Bars represent mean±SD of three experimental replicates. FIG. 4C bisulfite sequencing of cells in FIG. 4B. […] Shown is the mean percentage±SD of two biological replicates. […] C3H10T1/2 cells were plated as 1×10^4 cells per well in 6-well plate, and then infected with lentiviruses expressing dC-T and gRNAs targeting DMR-5, or a catalytic dead form of Tet1 (dC-dT) with target gRNAs. 24-hour post infection, cells were treated with vehicle control (HEPES buffer) or 5-Azacytidine (1 uM) for 24-hour, and then harvested after 14 days for immunofluorescence staining. Stained in green for MyoD, magenta for MHC and blue for DAPI. Scale bar: 200 um. FIG. 4F provides quantification of MyoD positive cell ratio 14-day post infection with lentiviruses expressing dC-T alone, dC-T with gRNAs targeting DMR-5, and dC-dT with the target gRNAs. […] FIG. 4H provides quantification of myotube density in MHC positive clusters with more than 2 or 5 nuclei at 14-days after infection. […] Data are quantified from 3-5 representative images for F-H. Bars represent mean±SD.\nFIGS. 12A-12J depict targeted demethylation of the MyoD DMR-5 by dCas9-Tet1 and conversion of fibroblasts to myoblasts. […] PAM for each sgRNA is highlighted by a red box. FIG. 12B provides experimental scheme of the fibroblast-to-myoblast conversion assay. Briefly, C3H10T1/2 mouse embryonic fibroblast cells were plated as 1×10^4 cells per well in 6-well plate, and then infected with lentiviruses expressing dCas9-Tet1 and target gRNAs. 24-hour post infection, cells were optionally treated with 5-Azacytidine (1 uM) for 24-hour (labeled in red), and harvested for immunofluorescence staining at different time points (day-14, -16 and -25, labeled in dark blue) with medium change every other day. Scale bar: 100 um. […] Stained in green for MHC, red for MyoD and blue for DAPI. Scale bar: 200 um. FIG. 12D depicts a fraction of mock C3H10T1/2 cells expressing MyoD at different times after 5-Aza treatment. The fraction of cells expressing MyoD increases from around 6% at day 14 to around 13% at day 16 and reached around 20% at day 25. Bars represent mean±SD. FIG. 12E provides number of nuclei in MHC+ cell clusters (grouped as 1-2 and >2 nuclei per MHC+ cluster). […] Bars represent mean±SD. Data was quantified from 3-5 representative images for each group in FIG. 12D and FIG. 12E. […] Bars represent mean±SD of three experimental replicates. FIG. 12G provides representative images for C3H10T1/2 cells 16 days after infection with lentiviruses expressing dC-T and gRNAs targeting DMR-5 (MyoD distal enhancer) in a fibroblast-to-myoblast conversion assay as described in FIG. 12B. […] Stained in magenta for MHC, green for MyoD and blue for DAPI. Scale bar: 200 um. FIG. 12H depicts a fraction of MyoD positive cells 16 days after infection with lentiviruses expressing dC-T alone or with gRNAs targeting DMR-5. FIG. 12I show a number of nuclei in MHC+ cell clusters (grouped as 2-5, 6-10, 11-20 and >20 nuclei per MHC+ cluster) 16 days after infection. […] Data are quantified from 3-5 representative images for FIGS. 12H-12J. Bars represent mean±SD.\nWe then investigated whether targeted demethylation of DMR-5 would synergize with 5-Aza treatment to induce myotube formation (FIG. 12B). To follow the process of myotube formation after 5-Aza treatment, a time-course experiment was performed. Multi-nucleated myotube (MHC-positive) with heterogeneous sizes began to form 14 days post treatment, and both MyoD-positive cell ratio and myotube density and size then increased up to day-25 (FIGS. 12C-12E). […]",
  "data": [
    {"substance": "dCas9-Tet1: catalytically inactive Cas9 (dCas9) fused through NLS to the Tet1 catalytic domain, SEQ ID NO: 159; lentivirally expressed with gRNAs", "values": [
      {"measurement": "MyoD expression level (immunofluorescence)", "setting": "with gRNAs targeting DMR-5, 14 days, absence of 5-Aza", "result": "moderate expression level of MyoD"},
      {"measurement": "myotube formation", "setting": "with gRNAs targeting DMR-5, 14 days, absence of 5-Aza treatment", "result": "not sufficient to induce myotube formation"},
      {"measurement": "myotube formation (MHC+ clusters, >2 nuclei per cluster)", "setting": "with gRNAs targeting MyoD DMR-5 plus 5-Aza, 14 days post-treatment, versus dCas9-Tet1 only or dC-dT", "result": "facilitated the myotube formation"}
    ]}
  ]
}
